Test [1] concerns the target T1, human P2X7 receptor (Homo sapiens, UniProt Q99572).
T1 sequence (Q99572 1-595): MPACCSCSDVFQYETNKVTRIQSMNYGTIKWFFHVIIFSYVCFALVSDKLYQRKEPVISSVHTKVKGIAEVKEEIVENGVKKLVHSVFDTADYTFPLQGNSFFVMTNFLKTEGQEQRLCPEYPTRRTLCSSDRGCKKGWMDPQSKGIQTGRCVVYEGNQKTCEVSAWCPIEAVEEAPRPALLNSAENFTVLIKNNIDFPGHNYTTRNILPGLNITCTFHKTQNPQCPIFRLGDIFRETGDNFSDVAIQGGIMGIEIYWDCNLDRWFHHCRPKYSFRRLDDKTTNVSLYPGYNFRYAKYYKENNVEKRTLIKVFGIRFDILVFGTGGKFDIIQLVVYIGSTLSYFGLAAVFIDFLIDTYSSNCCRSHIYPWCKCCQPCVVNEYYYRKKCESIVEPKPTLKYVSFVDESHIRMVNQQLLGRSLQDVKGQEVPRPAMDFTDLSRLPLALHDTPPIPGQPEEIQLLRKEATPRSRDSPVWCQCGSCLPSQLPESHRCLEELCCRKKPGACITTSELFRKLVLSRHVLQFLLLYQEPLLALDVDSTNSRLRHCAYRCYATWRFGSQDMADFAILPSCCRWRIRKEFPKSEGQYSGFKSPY
The test is described as follows: Ethidium bromide uptake fluorescence assay. The format is cell-based.

In test [2] the target is T1, human P2X7 receptor. The test is described as follows: Radioligand competition binding assay using [^3H]A804598.
The target of test [3] is T1, human P2X7 receptor. To be noted: carbon-11 labeled radioligand; ref Gao et al., 2015; Ory et al., 2016; cited from earlier work.
Test [4] concerns rodents P2X7 receptor. As to conditions: carbon-11 labeled radioligand; ref Gao et al., 2015; Ory et al., 2016; cited from earlier work.
For test [5], the target named is T1, human P2X7 receptor. The test is described as follows: Radioligand competition binding assay using [^123I]TZ6019.
Test [6] has as its target T1, human P2X7 receptor. The test is described as follows: Radioligand saturation binding assay with [^123I]TZ6019.
The target of test [7] is T2, P2X7 receptor (Mus musculus, UniProt Q9Z1M0).
T2 sequence (Q9Z1M0 1-595): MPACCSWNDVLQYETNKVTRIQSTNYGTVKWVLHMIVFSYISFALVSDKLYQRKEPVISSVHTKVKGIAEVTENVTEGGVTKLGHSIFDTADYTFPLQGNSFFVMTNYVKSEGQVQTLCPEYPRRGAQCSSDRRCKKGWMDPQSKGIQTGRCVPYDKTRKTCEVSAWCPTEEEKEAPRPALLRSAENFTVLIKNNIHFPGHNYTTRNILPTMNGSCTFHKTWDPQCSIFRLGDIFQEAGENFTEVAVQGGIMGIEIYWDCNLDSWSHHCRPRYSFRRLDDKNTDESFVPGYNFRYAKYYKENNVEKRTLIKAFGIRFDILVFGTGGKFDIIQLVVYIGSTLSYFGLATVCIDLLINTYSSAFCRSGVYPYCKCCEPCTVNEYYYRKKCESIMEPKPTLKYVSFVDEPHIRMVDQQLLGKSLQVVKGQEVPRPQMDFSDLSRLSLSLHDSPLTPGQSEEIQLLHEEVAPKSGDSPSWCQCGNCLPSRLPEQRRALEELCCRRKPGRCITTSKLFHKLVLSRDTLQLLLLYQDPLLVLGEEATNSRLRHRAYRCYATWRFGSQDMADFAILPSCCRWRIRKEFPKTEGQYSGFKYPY
The test is described as follows: In vitro autoradiography of P301S and wild type mouse brain slices. Format: binding. To be noted: for P2X7 receptor expression quantified by autoradiography: mean ± S.D., n = 3.

Take `CN1C(=O)CC[C@H]1C(=O)NCc1cccc(C(F)(F)F)c1Cl` [GSK1482160, reference compound]: the IC50 in test [1] came out at 2.1 ± 0.3 nM; in test [2], 8.65 ± 1 nM; in test [5], 4.3 ± 0.9 nM. Besides, the “binding to human P2X7 receptor” value in test [3] is reported as “tight binding”. In test [4], the “binding to rodents P2X7 receptor” value is given as “weak binding”.

On to `O=C(NCc1cccc(C(F)(F)F)c1Cl)[C@@H]1CCC(=O)N1C/C=C/I` [[^123I]TZ6019], for which the Kd in test [6] (read-out: Kd (saturation binding), HEK-293-hP2X7R cells, one-site fit, n = 3) amounted to 19.3 ± 2.8 nM.

In the case of `O=C(NCc1cccc(C(F)(F)F)c1Cl)[C@@H]1CCC(=O)N1C/C=C/I` [TZ6019, (S,E)-N-(2-chloro-3-(trifluoromethyl)benzyl)-1-(3-iodoallyl)-5-oxopyrrolidine-2-carboxamide], the “fold lower binding potency than GSK1482160” value in test [1] (ratio of ethidium bromide assay IC50 values) amounted to 5 fold. For the same molecule, the IC50 was determined as 12.9 ± 2 nM in test [2] and 9.49 ± 1.4 nM in test [5].

`O=C(NCc1cccc(C(F)(F)F)c1Cl)[C@@H]1CCC(=O)N1C/C=C/[123I]` [[^123I]TZ6019]: the “specific binding as fraction of total binding” value in test [6] (saturation binding, nonspecific defined with 100 µM GSK1482160) is “approximately 40%”. Further, the “fold higher autoradiography binding in P301S than wild type mice” value in test [7] (Cortex) came to 2.4 fold. Also, the “P2X7 receptor expression quantified by autoradiography” value is on record as 330.53 ± 91.08 PSL/mm^2 in test [7] (Cortex, P301S mice); 135.23 ± 32.55 PSL/mm^2 in test [7] (Cortex, Wild type mice); 255.05 ± 10.90 PSL/mm^2 in test [7] (Hippocampus, P301S mice, 9-month-old); 154.18 ± 16.14 PSL/mm^2 in test [7] (Hippocampus, Wild type mice, 9-month-old); 337.98 ± 93.45 PSL/mm^2 in test [7] (Thalamus, P301S mice); 187.41 ± 61.02 PSL/mm^2 in test [7] (Thalamus, Wild type mice). In addition, the “P2X7 receptor expression quantified by autoradiography” value in test [7] (Total brain, P301S mice) worked out at 260.86 ± 48.93 PSL/mm^2; in test [7] (Total brain, Wild type mice), 193.05 ± 39.92 PSL/mm^2. Besides, the “increase of binding in brain of P301S mice compared to wild type controls” value in test [7] (brain, n = 3, p = 0.04) is 35%.
